Source: patent publication US6262065A (priority 1998, dated 2001)

Assays:
glucosidase I = conditions: cited from earlier work
amyloglucosidase = conditions: cited from earlier work
[1] = molecular target: T1, α-mannosidase (jack bean) (Canavalia ensiformis, UniProt C0HJB3); assay: inhibition of α-mannosidase (jack bean), colorimetric release of p-nitrophenol from p-nitrophenyl α-D-mannopyranoside; format: biochemical; conditions: initial screening
T1 construct: purchased Sigma Chemical Co
T1 sequence (C0HJB3 1-562 limits assumed): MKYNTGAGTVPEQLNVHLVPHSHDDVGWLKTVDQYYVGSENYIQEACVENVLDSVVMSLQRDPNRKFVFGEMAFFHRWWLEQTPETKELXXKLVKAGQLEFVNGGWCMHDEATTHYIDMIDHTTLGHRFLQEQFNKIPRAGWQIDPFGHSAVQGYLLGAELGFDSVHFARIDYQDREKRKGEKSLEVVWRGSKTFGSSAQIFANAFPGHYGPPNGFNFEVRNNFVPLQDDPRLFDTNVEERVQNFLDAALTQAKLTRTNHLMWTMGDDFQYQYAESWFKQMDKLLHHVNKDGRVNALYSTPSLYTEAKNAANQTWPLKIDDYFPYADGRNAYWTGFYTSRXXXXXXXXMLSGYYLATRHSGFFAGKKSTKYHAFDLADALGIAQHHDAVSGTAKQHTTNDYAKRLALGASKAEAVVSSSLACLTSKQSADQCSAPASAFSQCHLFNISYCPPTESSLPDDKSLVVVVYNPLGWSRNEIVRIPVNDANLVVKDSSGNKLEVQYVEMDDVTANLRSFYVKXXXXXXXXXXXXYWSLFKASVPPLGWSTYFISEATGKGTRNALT
T1 sequence (C0HJB3 563-981 limits assumed): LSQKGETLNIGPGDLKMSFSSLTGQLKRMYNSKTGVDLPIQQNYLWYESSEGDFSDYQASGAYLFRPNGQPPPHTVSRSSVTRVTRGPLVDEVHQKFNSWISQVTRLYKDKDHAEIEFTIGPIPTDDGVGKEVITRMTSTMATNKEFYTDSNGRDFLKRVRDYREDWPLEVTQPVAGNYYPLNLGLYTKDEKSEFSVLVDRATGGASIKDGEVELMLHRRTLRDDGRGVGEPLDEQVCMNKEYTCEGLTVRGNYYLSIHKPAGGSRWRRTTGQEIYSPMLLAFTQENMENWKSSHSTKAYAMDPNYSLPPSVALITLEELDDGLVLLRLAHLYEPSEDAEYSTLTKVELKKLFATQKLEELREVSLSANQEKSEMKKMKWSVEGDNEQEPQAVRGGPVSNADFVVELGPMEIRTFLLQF
Experimental: The enzyme α-mannosidase (from jack bean) and the corresponding p-nitrophenyl α-D-mannopyranoside substrate was obtained from Sigma Chemical Co. Enzyme inhibition was assayed colorimetrically by monitoring the release of p-nitrophenol from p-nitrophenyl α-D-mannopyranoside according to the procedure described by Tropea, et. al. (Tropea, J. E., et al, Biochemistry, Vol. 28, pp. 2027-2034 (1989)).

HIV = conditions: cited from earlier work
[2] = tested on: mannosidases including the glycoprotein processing enzyme mannosidase II; conditions: many mannosidases including mannosidase II; cited from earlier work

OCC1C(O)C(O)C2C(O)CCN12 (stereo not shown) [compound 3]
inhibition of glucosidase I (glucosidase I): good inhibitors | inhibition of amyloglucosidase (amyloglucosidase): good inhibitors

OC[C@H]1[C@@H](O)[C@@H](O)[C@H]2[C@H](O)CCCN21 [(VIII), (1S,2R,3S,8R,8aR)-3-(Hydroxymethyl)-1,2,8-trihydroxyindolizidine]
IC50 [1]: 45 µM

OCC1C(O)C(O)C2C(O)CCN12 (stereo not shown) [compound 4]
anti-HIV activity (HIV): shows anti-HIV activity | inhibition of glucosidase I (glucosidase I): good inhibitors | inhibition of amyloglucosidase (amyloglucosidase): good inhibitors

OCC1C(O)C(O)C2C(O)CCN12 (stereo not shown) [compound 1]
inhibition of glucosidase I (glucosidase I): good inhibitors | inhibition of amyloglucosidase (amyloglucosidase): good inhibitors

OC[C@@H]1[C@@H](O)[C@@H](O)[C@H]2[C@H](O)CCCN21 [(VII), (1S,2R,3R,8R,8aR)-3-(Hydroxymethyl)-1,2,8-trihydroxyindolizidine]
IC50 [1]: 1.2 µM

O[C@H]1[C@H]2[C@H](O)CCCN2C[C@H]1O [swainsonine, (-)-swainsonine]
inhibition of mannosidases [2]: potent inhibitor
